# Measurements taken from patent US20190365720A1, “Novel formulations of amidine substituted beta-lactam compounds on the basis of modified cyclodextrins and acidifying agents, their preparation and use as antimicrobial pharmaceutical compositions” (AiCuris Anti-Infective Cures GmbH, priority 2016, published 2019).
# “Also recorded” adds a separate entry of the source.
# Legend:
# [1] = Solubility of compound (I) in selected solvent systems by UPLC; assay type: physicochemical; details: aqueous with cosolvent or surfactant or cyclodextrin, thermodynamic from solid, 25° C.
# Experimental: To determine the solubility of a compound (I) in selected solvent systems in accordance with the invention, UPLC was used, and physicochemical properties such as pH and physical appearance were monitored. The solubility of compound (I) in solution was determined at 25° C. separately in following solvent systems at three time points (at 2 hours, at 6 hours and at 24 hours) in duplicates. 1) Hydroxypropyl-β-cyclodextrin solution (30% w/v) 2) Hydroxypropyl-β-cyclodextrin (30% w/v) solution containing 2% CA 3) Solvent mixture of PEG400 (40%)+2% CA (60%) To the vial for each time point 3 mL of individual solvent were added followed by addition of the weighed amount of compound (I) (100 mg). This system was kept for stirring on a magnetic stirrer at 700 rpm. At each time point, the solution was filtered through a […] syringe filter and analysed for the content of compound (I) using UPLC after suitable dilutions.
# [2] = pH-dependent solubility of compound (I); assay type: physicochemical; details: 25 °C
# Experimental: The solubility profile of the API of a compound of formula (I) was measured at two different pH values (see […]): FIG. 23: pH solubility profile in pure water at 25° C.
# [3] = Fraction bound to plasma protein in mice; assay type: in vitro ADME; details: mouse, read-out: Fraction bound to plasma protein (fp) (converted)
# [4] = Calculated fraction of compound (I) bound to SBE-β-CD in blood plasma after i.v. administration; design: species or system mice; details: after i.v. administration at time zero
# Experimental: On average, mice have 79 ml of blood per kg of body weight (see https://en.wikipedia.org/wiki/Blood_volume; Oct. 3, 2016). If the blood plasma is 55% of the total blood volume then mice have around 43 ml of plasma per kg of body weight. The dose was 25 mg/kg (0.037 mmoles/kg) of compound (I) and 156.5 mg/kg ([…]) of SBE-β-CD. After mixing with the blood plasma the initial plasma concentration should be 8.6.10^−4 M of compound (I) and 1.7.10^−3 M of SBE-β-CD.
# female rabbits = assay: Local tolerance after single intravenous infusion into the marginal ear vein; assay type: in vivo, rabbit
# Experimental: The aim of this example was to test the local tolerance of a compound (I) containing aqueous injectable solution in accordance with the invention in female rabbits following a single intravenous infusion for 30 or 60 minutes. Each animal received 15 mL of a formulation containing 5 mg compound (I) as API per mL into the marginal vein of the right ear. Two groups of 9 female animals, each, were employed with infusion durations of 30 or 60 minutes per dose. In addition, a placebo solution as vehicle control, was administered in the same volume and duration on the left ear of each animal. 24, 72 and 96 hours after administration respectively 3 animals per group were sacrificed and the injection sites were examined macro- and microscopically. The application formulations were freshly prepared on the administration day. The compound (I) and the placebo were dissolved in the vehicles to the appropriate concentrations: 15 mL of WFI were added to 1 compound (I) drug product vial and shaken well. The solution volume expanded to approximately 17 mL. The final concentration was approximately 29 mg/mL. Withdraw 17 mL from 100 mL of lactated Ringer's solution. Then add the reconstituted solution (approx. 17 mL from step 1). Mix well. The final concentration was approximately […]. Species: rabbit; Strain: New Zealand White Selection of species: the rabbit is a commonly used species for local tolerance studies. Number and sex of animals: 18 female animals Age (at start of administration): approx. 3 months Body weight (at start of administration): 2.31 to 2.73 kg Acclimatisation period: at least 20 acclimatisation days; 4 test days Routes of administration: single intravenous infusion into the marginal vein of the ear. Selection of routes of administration: according to clinical use via intravenous route. The compound (I) solutions were administered to the right ear, and the placebo solutions were administered to the left ear of each animal. Local reactions were inspected macroscopically 1 […] and 96 h after injection. The reactions were scored on the basis of DRAIZE, Appraisal of the Safety of Chemicals in Food, Drugs and Cosmetics, Association of Food and Drug Officials of the United States, Austin, Tex., 1959. The animals scheduled for the respective dissection day were sacrificed with pentobarbitol injection into an ear vein (not used for infusion). All animals were subjected to gross examination including the opening of the cranial, thoracic and abdominal cavities and the examination of the major organs. Particular attention was paid to the appropriate injection sites (test and control items). All abnormalities were recorded. Tissue abnormalities would have been preserved in 10% neutral buffered formalin. Histopathological examination was performed on treated infusion sites (compound (I) and placebo, 2 sites per animal) plus an untreated adjacent site from all animals. Tissue samples were fixed in 10% buffered formalin. Paraffin sections (3 to 5 μm) were prepared, stained with hematoxylin-eosin, and examined histologically.
# [5] = Physical / in-use stability of solutions at room temperature; assay type: physicochemical
smiles,measurement,setting,value
CC1(C)[C@H](NC(=O)/C(=N\O[C@@H](COc2ccc(C(=N)N[C@@H]3CCCNC3)cc2)C(=O)O)c2csc(N)n2)C(=O)N1OS(=O)(=O)O [compound (I)],solubility,[1]; 30% HP-β-CD plus 2% CA,16200 µg/mL
same,solubility,"[1]; hydroxypropyl-β-cyclodextrin solution (30% w/v), 30% HP-β-CD as sole excipient",2700 µg/mL
same,solubility,"[2]; pure water (pH-adjusted, no cyclodextrin), pH 7.4, aqueous buffer",1000 µg/mL
same,solubility,"[2]; pure water, aqueous buffer, pH 4.0",10000 µg/mL
same,fraction unbound,[3],0.779
same,Fraction of compound (I) free or bound to plasma proteins,[4],about 80%
same,Fraction of compound (I) bound to SBE-β-CD,"[4]; 25 mg/kg with 156.5 mg/kg SBE-β-CD, plasma pH 7.4",about 22%
same,Body weight,female rabbits; 15 mL of 5 mg/mL i.v. infusion,No influence on the body weight
same,Clinical signs,female rabbits; 15 mL of 5 mg/mL i.v. infusion,No clinical signs of toxicity
same,Necropsy findings,"female rabbits; 15 mL of 5 mg/mL i.v. infusion, 30 or 60 min",did not reveal any changes
same,Macroscopic changes at infusion sites,"female rabbits; 15 mL of 5 mg/mL i.v. infusion, 30 or 60 min, inspected 1 h to 96 h",did not reveal any changes
same,Microscopic (histopathological) changes at infusion sites,"female rabbits; 15 mL of 5 mg/mL i.v. infusion, 30 or 60 min, versus vehicle control sites",did not reveal any compound (I)-related changes; also recorded: did not cause any compound (I)-related histopathological changes
same,Compatibility following intravenous infusion,female rabbits; overall conclusion,very good compatibility
same,Stability after reconstitution,[5],6 h
